Data published in ChEMBL document CHEMBL1154198, “Chemical genetics of Plasmodium falciparum” (Nature, 2010).

Columns and labels:
Plasmodium falciparum [1] = assay: ST_JUDE: Plasmodium falciparum 3D7 EC50 (uM) as measured by SYBR green dye; assay type: functional, organism-based
Plasmodium falciparum [2] = assay: ST_JUDE: Plasmodium falciparum K1 EC50 (uM) as measured by SYBR green dye; assay type: functional, organism-based

Structure (SMILES) | EC50 (Plasmodium falciparum [1]) [µM] | EC50 (Plasmodium falciparum [2]) [µM]
O=C(N1CCCC1)C12CC3CC(CC(C3)C1)C2 | 8.15 | 7.65
CC(C)=CCN1CCC(C(=O)Nc2ccc(-c3nc4ccccc4[nH]3)cc2)CC1 | 1.34 | 6.76
Nc1ccc(-c2nc3cc(Oc4ccc5[nH]c(-c6ccc(N)cc6)nc5c4)ccc3[nH]2)cc1 | 1.47 | 1.69
CCN1C=CC(=Cc2ccc3cc(C)ccc3[n+]2C)C=C1 | 0.265 | 0.106
Cc1ccc(C)c(Oc2c(C(F)(F)F)oc3c(CN4CCN(Cc5ccccc5)CC4)c(O)ccc3c2=O)c1 | 0.612 | 0.274
Cc1ccc(C(=O)N2CCc3ccccc32)cc1Br | > 15 | > 15
C[n+]1ccc(/C=C/c2ccc3c(c2)OCO3)cc1 | 3.47 | 2.39
Cc1ccc(S(=O)(=O)Nc2ccc(Nc3nc(C)cc(N4CCCC4)n3)cc2)cc1 | 0.919 | 7.18
COc1cccc(NC2=C(N3CCCCC3)C(=O)c3ccccc3C2=O)c1 | 0.052 | 0.153
Oc1c(C(Nc2ccccn2)c2cccc(OC3CCCC3)c2)ccc2cccnc12 (centres undefined) | 3.71 | 4.16
Cc1ccnc(NC(c2ccccc2F)c2ccc3cccnc3c2O)c1 (centres undefined) | 1.86 | 1.5
COc1ccc(Nc2cc(C)nc(N3CCN(C(=O)c4ccccc4C(F)(F)F)CC3)n2)cc1 | 3.59 | 1.57
Cc1ccc2c(c1)c(-c1ccccc1)c(-c1ccccc1)n2CC(O)CNCCc1ccccc1 (centres undefined) | 1.41 | 0.602
O=C(Nc1ccc(N2CCCCC2)c(Cl)c1)c1ccc(F)cc1 | > 15 | 0.801
CC(C(=O)c1ccc(-c2ccccc2)cc1)[n+]1ccccc1 (centres undefined) | 7.02 | 4
Cc1cccc(-c2c3c(=O)n(C)c(=O)n(C)c3cn2-c2cc(Cl)ccc2O)c1 | > 15 | > 15
O=C(Nc1cccc(C2=NCCN2)c1)Nc1cccc(C2=NCCN2)c1 | 1.89 | 0.23
Cc1ccc(C(=O)Nc2ccc3c(c2)N(S(=O)(=O)c2ccc(F)cc2)CCC3)cc1 | > 15 | > 15
Cc1ccc(Nc2nc(N/N=C/c3ccc(/C=N/Nc4nc(Nc5ccc(C)cc5)nc(N5CCOCC5)n4)cc3)nc(N3CCOCC3)n2)cc1 | 1.58 | 1.43

Structure (SMILES) | EC50 (Plasmodium falciparum [1]) [µM] | EC50 (Plasmodium falciparum [2]) [µM]
Cn1c2c(c(=N)c3c1CCC3)CCCC2 | 2.39 | 5.79
O=C1c2ccc3c4c(ccc(c24)C(=O)N1CCO)C(=O)N(CCO)C3=O | > 15 | 2.7
COCc1cc(CN2CCN(c3cccc(C(F)(F)F)c3)CC2)c(O)c2ncccc12 | 1.82 | 2.25
CCc1ccc(NC(=O)C2c3ccccc3C(=O)N(C3CCCC3)C2c2cccs2)cc1 (centres undefined) | 1.83 | 1.87
C[n+]1ccccc1/C=C/c1ccc(O)cc1 | 3.18 | 3.28
CC[n+]1cccc(-c2nc3ccccc3s2)c1 | 7.66 | 5.92
Cc1ccc(Nc2cc(C)nc(Nc3ccc(NS(=O)(=O)c4ccc(Cl)cc4)cc3)n2)cc1 | 0.432 | > 15
CC(C)c1ccccc1Oc1c(C(F)(F)F)oc2c(CN3CCCC3)c(O)ccc2c1=O | 1.58 | 1
COc1ccc(Nc2nc(NCc3ccccc3)c3ccccc3n2)cc1 | 1.31 | 7.39
Oc1ccc(Cl)cc1Nc1ncnc2ccc(Br)cc12 | > 15 | 3.85
FC(F)(F)c1cccc(NC(=S)Nc2cccc(Cl)c2)c1 | 3.79 | 2.95
Cc1ccc(C2Nn3c(nnc3-c3ccccc3)SC2C(=O)N2CCCCCC2)cc1 (centres undefined) | 2.94 | 3.91
O=C(Nc1ccccc1F)C1c2ccccc2C(=O)N(C2CCCC2)C1c1cccs1 (centres undefined) | 1.77 | 2.55
Oc1c(C(Nc2ccccn2)c2c(F)cccc2Cl)cc(Cl)c2cccnc12 (centres undefined) | > 15 | > 15
COc1ccccc1[N+]1=C2CCCCN2C(O)(c2ccc(Cl)cc2)C1 (centres undefined) | > 15 | 7.71
Cc1ccc(NC(=O)C2(c3ccc([N+](=O)[O-])cc3)CCCC2)cc1 | > 15 | 3.82
COc1ccc(/C=C2\Oc3c(ccc(O)c3CN3CCCCC3)C2=O)cc1 | 1.63 | 0.846
Cc1c(C)n(CC(O)CNC2CCCCC2C)c2ccccc12 (centres undefined) | 0.527 | 0.35

Further lines, results first:

EC50 (Plasmodium falciparum [1]) [µM] | EC50 (Plasmodium falciparum [2]) [µM] | Structure (SMILES)
> 15 | 5.89 | CC(=O)NC(c1cccs1)c1cc(Cl)c2cccnc2c1O (centres undefined)
> 15 | > 15 | CCOc1ccc(C2N(C)c3ccccc3N2C)cc1
0.575 | 1.29 | CCOC(=O)c1cnc2ccc(OC)cc2c1Nc1ccc(N2CCN(C)CC2)cc1
> 15 | > 15 | O=C(CN1CCN(C2CCCC2)CC1)Nc1ccc([N+](=O)[O-])cc1C(=O)Nc1ccccc1F
> 15 | 0.514 | CCc1c(C)c2cc3c(c(C)c2oc1=O)OCN(CCc1ccc(OC)cc1)C3
> 15 | 7.84 | CCCOc1cccc(C2c3c(-c4ccccc4O)n[nH]c3C(=O)N2CCCOCC)c1 (centres undefined)
3.99 | 3.74 | CCCOc1ccc(C(NC(=O)CCl)NC(=O)CCl)cc1OC
> 15 | 1.75 | CCCCOc1ccc(C(=O)Nc2ccccc2Oc2ccccc2)cc1
> 15 | > 15 | CCN(CC)S(=O)(=O)c1ccc(C(=O)Nc2nc(-c3ccccc3OC)cs2)cc1
> 15 | > 15 | CCCCN(C)S(=O)(=O)c1ccc(C(=O)N(Cc2ccccn2)c2nc3ccccc3s2)cc1
7.28 | 4.22 | COc1cccc(OC)c1CN1CCC(C(Cc2ccccc2F)N(C)C(=O)c2cccs2)CC1 (centres undefined)
> 15 | > 15 | COC(=O)c1sc2ccccc2c1NC(=O)c1cccc(Br)c1
> 15 | 6.3 | CCOC(=O)C1=C(CN(C)c2ccc(F)cc2)NC(=O)NC1c1ccc(Cl)cc1 (centres undefined)
3.01 | 1.76 | CCOc1cc2c(cc1OCC)C(c1cc(Cl)c(O)c(OCC)c1)NCC2 (centres undefined)
> 15 | > 15 | C#CCN(CC=C)Cc1nc(-c2cc(OC)ccc2OC)oc1C
2.01 | 1.19 | CCCCCCCOC(=O)c1[nH]c2c(c1C)C(=O)CC(c1ccco1)C2 (centres undefined)
> 15 | > 15 | Cc1ccc(C)c(NC(=O)CSc2ccc(Cl)cc2)c1
> 15 | > 15 | CC1(C)Cc2ccccc2C(NCC(=O)O)=N1
2.83 | 5.6 | CCOc1ccc(CCNC(=O)Nc2cc(C(F)(F)F)cc(C(F)(F)F)c2)cc1OC
> 15 | > 15 | CCOc1ccc(-c2nonc2NC(=O)c2ccc(C)cc2)cc1OCC
> 15 | > 15 | CCN(C(=O)Nc1ccccc1OC)c1nc(-c2ccccc2)cs1
4.03 | 4.46 | CC(=O)Oc1ccc2ccccc2c1C(NC(=O)C(C)C)c1ccc(Cl)cc1 (centres undefined)
2.53 | 3.09 | CCOC(=O)c1cnc2c(C(F)(F)F)cccc2c1Nc1cc(C)ccc1O
1.5 | 0.49 | COc1ccccc1CCN1COc2c(cc3c(C)c(C)c(=O)oc3c2C)C1
2.72 | 2.66 | CC(=O)Oc1ccccc1C(=O)Nc1cccc(C(F)(F)F)c1

EC50 (Plasmodium falciparum [1]) [µM] | EC50 (Plasmodium falciparum [2]) [µM] | Structure (SMILES)
1.52 | 1.74 | CCCCN(C)C(=O)C1c2ccccc2C(=O)N(CC(C)C)C1c1cccs1 (centres undefined)
0.857 | 1.29 | COc1ccc(Cl)cc1NC(=S)N1CCN(c2ccc(C#N)cc2)CC1
3.07 | 9.01 | CCN1CCN(c2cc(C)c3cc(NC(=S)NCc4cc(OC)ccc4OC)ccc3n2)CC1
> 15 | > 15 | COc1ccc(-c2nnc3c4ccccc4c(C)nn23)cc1S(=O)(=O)N1CCCCC1
1.49 | 0.284 | CCOc1ccc2c(c1)CN(Cc1ccc(Cl)cc1)CO2
4.48 | > 15 | CCOc1ccc(CCNC(=O)Nc2ccc(F)cc2)cc1OCC
4.03 | 3.44 | CCOc1c(Br)cc(C2C(C(=O)OC)=CN(C(C)C)C=C2C(=O)OC)cc1OC
5.02 | 4.99 | CCOc1ccc(Nc2cc(C)nc(-n3nc(C)cc3C)n2)cc1
0.502 | 0.961 | Cc1cc(Nc2ccc(C(C)C)cc2)n2ncnc2n1
> 15 | > 15 | CCc1c(C)nc(-n2nc(C)cc2NC(=O)c2ccccc2F)nc1O
3.84 | 4.42 | O=C(Nc1cc(OCC(F)(F)F)cc(OCC(F)(F)C(F)F)c1)c1cccnc1
> 15 | > 15 | CSc1cccc(NC(=O)N2CCC(CO)(Cc3ccccc3Cl)CC2)c1
> 15 | > 15 | COc1ccc2c(c1OC)C(=O)N1c3ccccc3N=C(c3ccc([N+](=O)[O-])cc3)CC21 (centres undefined)
6.99 | 7 | CCOc1ccc2nc(N(Cc3cccnc3)C(=O)c3cccs3)sc2c1
0.835 | 0.465 | CCCCCCCCCn1ccc(=N)cc1
> 15 | 1.91 | Cc1ccc(NC(=O)CSc2nc3c(cnn3CCO)c(=O)[nH]2)cc1
2.51 | 1.52 | O=C(NC(c1ccc([N+](=O)[O-])cc1)c1cc(Cl)c2cccnc2c1O)c1cccnc1 (centres undefined)
4.96 | > 15 | CCS(=O)(=O)c1ccc(OC)c(/N=N/c2ccc(O)c3ncccc23)c1
> 15 | 4.64 | CCCCc1ccc(Nc2cc(C)nc(-n3nc(C)cc3C)n2)cc1
0.995 | 1.05 | CCN(CC)CCN1C(=O)c2oc3ccccc3c(=O)c2C1c1cccc(OC)c1 (centres undefined)
0.726 | 0.419 | CC(C)(C)C1CCc2onc(C(=O)Nc3cc(Br)ccc3O)c2C1 (centres undefined)
> 15 | > 15 | COc1cccc(-c2nn(C)c3sc(C(=O)NCCN4CCN(Cc5ccccc5)CC4)cc23)c1
> 15 | > 15 | COc1ccc(N2CCN(CC(O)COc3ccc(C)cc3C(C)(C)C)CC2)cc1 (centres undefined)
5.43 | 4.59 | COc1ccc(NC(=O)CSc2nc(-c3ccccc3Cl)ns2)c(OC)c1
4.26 | > 15 | C=C(C)CCC(C)N1CCC(N2CCC(C(=O)NCCc3ccccc3)CC2)CC1 (centres undefined)
